According to patent US20100184989A1, “De Novo Synthesis of Conjugates” (Nektar Therapeutics, priority 2007, published 2010):

Each compound was assayed against calcium channel type L (Rattus norvegicus, UniProt P22002) (assay: Calcium channel type L binding assay, [3H]Nitrendipine displacement). Conditions: rat cortical membranes; [3H]Nitrendipine 0.2 nM; 50 mM TRIS-HCl pH 7.7, 25° C., 60 minutes; nifedipine reference value given beside each test compound.
Protocol: In the assay, rat cortical membranes were used as a receptor source and the radioligand [^3H]Nitrendipine (70-87 Ci/mmol) was used at a final ligand concentration of 0.2 nM. […] The reactions were carried out in 50 mM TRIS-HCl (pH 7.7) at 25° C. for 60 minutes. The reaction was terminated by rapid vacuum filtration onto glass fiber filters. Radioactivity trapped onto the filters was determined and compared to control values in order to ascertain any interactions of test compound with the nitredipine binding site (Gould, Murphy, and Snyder. Molecular Pharmacology 25, 235-241 (1984)).

calcium channel type L, sequence (P22002 whole entry): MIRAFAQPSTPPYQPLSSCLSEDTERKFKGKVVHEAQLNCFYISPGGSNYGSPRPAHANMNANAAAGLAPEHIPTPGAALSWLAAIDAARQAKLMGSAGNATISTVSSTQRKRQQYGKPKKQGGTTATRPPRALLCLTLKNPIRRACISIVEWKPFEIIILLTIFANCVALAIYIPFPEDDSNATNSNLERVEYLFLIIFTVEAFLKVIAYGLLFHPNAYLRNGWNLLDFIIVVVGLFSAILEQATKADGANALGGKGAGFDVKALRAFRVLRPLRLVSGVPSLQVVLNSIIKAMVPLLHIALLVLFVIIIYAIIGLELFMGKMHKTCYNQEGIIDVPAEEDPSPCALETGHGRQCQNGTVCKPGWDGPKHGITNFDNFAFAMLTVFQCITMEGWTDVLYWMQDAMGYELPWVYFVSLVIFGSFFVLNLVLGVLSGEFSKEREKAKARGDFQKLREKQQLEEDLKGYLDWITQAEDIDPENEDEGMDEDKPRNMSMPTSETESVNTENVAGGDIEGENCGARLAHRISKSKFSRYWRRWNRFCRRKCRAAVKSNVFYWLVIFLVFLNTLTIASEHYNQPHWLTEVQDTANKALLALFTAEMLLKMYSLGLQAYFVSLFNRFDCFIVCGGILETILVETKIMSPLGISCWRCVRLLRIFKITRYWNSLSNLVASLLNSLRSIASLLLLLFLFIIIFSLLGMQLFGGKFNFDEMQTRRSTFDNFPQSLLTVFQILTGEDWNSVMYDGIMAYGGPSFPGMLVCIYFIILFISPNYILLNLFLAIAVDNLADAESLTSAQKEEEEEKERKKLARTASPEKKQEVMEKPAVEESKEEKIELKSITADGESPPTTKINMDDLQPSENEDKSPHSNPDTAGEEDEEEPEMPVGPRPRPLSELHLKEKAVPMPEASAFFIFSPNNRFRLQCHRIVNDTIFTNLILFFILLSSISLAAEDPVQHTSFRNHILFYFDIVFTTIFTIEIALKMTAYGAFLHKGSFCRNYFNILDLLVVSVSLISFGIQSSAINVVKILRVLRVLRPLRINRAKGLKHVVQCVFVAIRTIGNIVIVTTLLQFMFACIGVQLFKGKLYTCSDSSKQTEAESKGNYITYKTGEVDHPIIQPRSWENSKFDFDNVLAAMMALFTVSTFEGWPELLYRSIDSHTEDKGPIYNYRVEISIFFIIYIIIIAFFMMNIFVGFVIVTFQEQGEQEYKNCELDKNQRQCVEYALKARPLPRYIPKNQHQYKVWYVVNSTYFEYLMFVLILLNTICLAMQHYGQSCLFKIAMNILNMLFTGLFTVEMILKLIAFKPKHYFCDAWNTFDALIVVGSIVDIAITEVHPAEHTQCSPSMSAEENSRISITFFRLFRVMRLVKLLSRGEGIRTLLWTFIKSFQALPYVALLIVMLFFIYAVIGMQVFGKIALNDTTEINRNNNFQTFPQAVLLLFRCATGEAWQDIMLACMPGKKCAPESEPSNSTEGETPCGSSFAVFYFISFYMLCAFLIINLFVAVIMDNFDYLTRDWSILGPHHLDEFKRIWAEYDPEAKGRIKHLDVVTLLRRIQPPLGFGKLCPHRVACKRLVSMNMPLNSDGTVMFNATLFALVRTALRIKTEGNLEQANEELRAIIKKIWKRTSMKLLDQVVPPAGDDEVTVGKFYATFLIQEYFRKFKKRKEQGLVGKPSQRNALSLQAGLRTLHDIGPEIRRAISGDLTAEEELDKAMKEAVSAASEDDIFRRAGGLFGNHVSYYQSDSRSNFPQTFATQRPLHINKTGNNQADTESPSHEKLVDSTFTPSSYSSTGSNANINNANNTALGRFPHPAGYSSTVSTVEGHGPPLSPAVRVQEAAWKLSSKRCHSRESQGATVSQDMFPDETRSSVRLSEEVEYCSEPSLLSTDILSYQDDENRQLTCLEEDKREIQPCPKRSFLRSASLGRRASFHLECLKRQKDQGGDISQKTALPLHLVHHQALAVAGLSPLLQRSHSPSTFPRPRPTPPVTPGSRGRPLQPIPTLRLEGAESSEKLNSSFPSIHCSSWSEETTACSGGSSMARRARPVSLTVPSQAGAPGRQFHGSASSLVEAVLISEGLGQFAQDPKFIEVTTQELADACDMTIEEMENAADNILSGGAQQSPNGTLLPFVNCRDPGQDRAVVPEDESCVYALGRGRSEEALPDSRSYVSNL

| IC50 [nM] | SMILES |
| --- | --- |
| 67.4 | COCCOCCOC(=O)C1=C(C)NC(C)=C(C(=O)OCCOCCOC)C1c1ccccc1[N+](=O)[O-] [compound (6a) from Example 3, 2,6-dimethyl 4-(2-nitrophenyl)-1,4-dihydropyridine-3,5-dicarboxylic acid dimethoxy di(ethylene glycol)ester] |
| 160 | COCCOCCOCCOC(=O)C1=C(C)NC(C)=C(C(=O)OCCOCCOCCOC)C1c1ccccc1[N+](=O)[O-] [compound (2) from Example 1, 2,6-dimethyl 4-(2-nitrophenyl)-1,4-dihydropyridine-3,5-dicarboxylic acid dimethoxy tri(ethylene glycol)ester] |
| 55.6 | CCCCCCOCCOCCOC(=O)C1=C(C)NC(C)=C(C(=O)OCCOCCOCCCCCC)C1c1ccccc1[N+](=O)[O-] [compound (6c) from Example 3, 2,6-dimethyl 4-(2-nitrophenyl)-1,4-dihydropyridine-3,5-dicarboxylic acid dihexoxy di(ethylene glycol)Ester] |

| SMILES | IC50 [nM] |
| --- | --- |
| CCCCOCCOCCOC(=O)C1=C(C)NC(C)=C(C(=O)OCCOCCOCCCC)C1c1ccccc1[N+](=O)[O-] [compound (6b) from Example 3, 2,6-dimethyl 4-(2-nitrophenyl)-1,4-dihydropyridine-3,5-dicarboxylic acid dibutoxy di(ethylene glycol)ester] | 15.5 |
